# Assay results published in patent US20250326753A1, “DUAL CXCR4-BTK INHIBITORS” (X4 Pharmaceuticals, Inc., priority 2022, published 2025).
# Target: T1, BTK (Bruton tyrosine kinase) (Homo sapiens, UniProt Q06187)
# T1 construct: GST or His (the text leaves open which); purchased Reaction Biology Europe GmbH Lot 012,11; host or cells: Sf9 insect cells or E. coli (not resolved)
# Test: BTK screening assay (33PanQinase Activity Assay, radiometric)
# Assay type: biochemical
# Settings: not given
# Description: Inhibition of BTK activity was evaluated using a radiometric protein kinase assay (33PanQinase® Activity Assay) to measure the activity of BTK (Bruton tyrosine kinase).
# Kinase assays were performed in 96-well ScintiPlates™ from Perkin Elmer (Boston, MA, USA) in a 50 μL reaction volume. The reaction cocktail was pipetted in four steps in the following order: 10 μL of non-radioactive ATP solution (in H2O); 25 μL of assay buffer/[γ-^33P]-ATP mixture; 5 μL of compound test sample in 10% DMSO; 10 μL of enzyme/substrate mixture.
# BTK kinase was expressed in Sf9 insect cells or in E. coli as recombinant GST-fusion proteins or His-tagged proteins, either as full-length or enzymatically active fragments from human cDNAs, and purified by either GSH-affinity chromatography or immobilized metal. Purity was examined by SDS-PAGE/Coomassie staining, and identity confirmed by mass spectroscopy.
# The reaction cocktails were incubated at 30° C. for 60 minutes. The reaction was stopped with 50 μL of 2% (v/v) H3PO4, plates were aspirated and washed two times with 200 μL 0.9% (w/v) NaCl. Incorporation of ^33Pi (counting of “cpm”) was determined with a microplate scintillation counter (Microbeta, Wallac).
# The median value of the counts in wells containing assay buffer without enzyme, and without test compound was defined as “low control.” This value reflects unspecific binding of radioactivity to the plate in the absence of a protein kinase but in the presence of the substrate. The median value of the counts in wells containing assay buffer without test compound was defined as the “high control,” i.e. full activity in the absence of any inhibitor. The difference between high and low control was taken as 100% activity. Residual activity (in %) was calculated using the following formula: Res. Activity (%)=100×[(cpm of compound-low control)/(high control-low control)].
# The fitting method used was a least-squares fit.
# T1 sequence (Q06187 whole entry): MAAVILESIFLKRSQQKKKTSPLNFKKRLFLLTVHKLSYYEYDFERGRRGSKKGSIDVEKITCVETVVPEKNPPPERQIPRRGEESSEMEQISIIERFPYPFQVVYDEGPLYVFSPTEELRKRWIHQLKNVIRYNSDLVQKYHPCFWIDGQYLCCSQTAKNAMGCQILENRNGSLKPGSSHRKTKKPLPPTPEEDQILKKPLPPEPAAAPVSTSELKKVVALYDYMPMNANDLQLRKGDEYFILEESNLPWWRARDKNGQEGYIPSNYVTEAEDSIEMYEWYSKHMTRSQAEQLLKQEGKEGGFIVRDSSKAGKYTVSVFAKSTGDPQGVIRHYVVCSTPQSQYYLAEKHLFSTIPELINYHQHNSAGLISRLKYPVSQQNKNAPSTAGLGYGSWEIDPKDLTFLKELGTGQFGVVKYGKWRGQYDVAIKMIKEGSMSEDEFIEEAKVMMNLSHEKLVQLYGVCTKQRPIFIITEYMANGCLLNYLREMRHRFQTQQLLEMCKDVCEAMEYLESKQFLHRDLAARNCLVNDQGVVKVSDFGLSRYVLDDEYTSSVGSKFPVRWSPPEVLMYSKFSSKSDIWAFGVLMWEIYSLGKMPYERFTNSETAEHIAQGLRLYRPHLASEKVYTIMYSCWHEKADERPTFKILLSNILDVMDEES
row,IC50,SMILES
1,> 2500 nM,Cc1cccnc1[C@H]1CCC[C@@H](c2ncccc2C)N1CCNC(=O)c1cc2c(-c3cccc(NC(=O)c4ccccc4)c3C)ncnc2[nH]1 [Compound I-74]

# Same assay, conditions: Inhibition of BTK, radiometric 33PanQinase Activity Assay, 3 μM ATP, 10 concentrations in singlicate, top 10 μM; read-out: 33PanQinase ® Radiometric IC50
row,SMILES,IC50
1,Cc1cc(-c2ccnc(Nc3cnn(CCCCN4[C@@H](c5ncccc5C)CCC[C@H]4c4ncccc4C)c3)n2)ccc1CNC(=O)N1CC(OC(C)C)C1 [Compound I-29],1 to 100 nM
2,Cc1cc(-c2ncnc3[nH]c(C(=O)NCCCCN4[C@@H](c5ncccc5C)CCC[C@H]4c4ncccc4C)cc23)ccc1CNC(=O)c1ccccc1 [Compound I-47],1 to 100 nM
3,CCc1ccc(C(=O)NCc2ccc(-c3ncnc4[nH]c(C(=O)NCCCCN5[C@@H](c6ncccc6C)CCC[C@H]5c5ncccc5C)cc34)cc2C)cc1 [Compound I-48],1 to 100 nM
4,Cc1cc(-c2ncnc3[nH]c(C(=O)NCCCCN4[C@@H](c5ncccc5C)CCC[C@H]4c4ncccc4C)cc23)ccc1CNC(=O)c1ccc(F)cc1 [Compound I-49],1 to 100 nM
5,Cc1cc(-c2ncnc3[nH]c(C(=O)NCCCN4[C@@H](c5ncccc5C)CCC[C@H]4c4ncccc4C)cc23)ccc1CNC(=O)c1ccccc1 [Compound I-50],1 to 100 nM
6,CCc1ccc(C(=O)NCc2ccc(-c3ncnc4[nH]c(C(=O)NCCCN5[C@@H](c6ncccc6C)CCC[C@H]5c5ncccc5C)cc34)cc2C)cc1 [Compound I-51],1 to 100 nM
7,Cc1cc(-c2ncnc3[nH]c(C(=O)NCCCN4[C@@H](c5ncccc5C)CCC[C@H]4c4ncccc4C)cc23)ccc1CNC(=O)c1ccc(F)cc1 [Compound I-52],1 to 100 nM
8,CCOC1CN(C(=O)NCc2ccc(-c3ccnc(Nc4cnn(CCN5[C@@H](c6ncccc6C)CCC[C@H]5c5ncccc5C)c4)n3)cc2C)C1 [Compound I-53],1 to 100 nM
9,COC1CN(C(=O)NCc2ccc(-c3ccnc(Nc4cnn(CCCN5[C@@H](c6ncccc6C)CCC[C@H]5c5ncccc5C)c4)n3)cc2C)C1 [Compound I-54],1 to 100 nM
10,CCOC1CN(C(=O)NCc2ccc(-c3ccnc(Nc4cnn(CCCN5[C@@H](c6ncccc6C)CCC[C@H]5c5ncccc5C)c4)n3)cc2C)C1 [Compound I-55],1 to 100 nM
11,Cc1cc(-c2ccnc(Nc3cnn(CCCN4[C@@H](c5ncccc5C)CCC[C@H]4c4ncccc4C)c3)n2)ccc1CNC(=O)N1CC(OC(C)(C)C)C1 [Compound I-56],1 to 100 nM
12,Cc1cc(-c2ccnc(Nc3cnn(CCCN4[C@@H](c5ncccc5C)CCC[C@H]4c4ncccc4C)c3)n2)ccc1CNC(=O)N1CC(OC(F)(F)F)C1 [Compound I-57],1 to 100 nM
13,Cc1ccc(Oc2ccc(C(=O)c3c[nH]c4ncnc(N[C@@H]5CC[C@@H](C(=O)NCCCCN6[C@@H](c7ncccc7C)CCC[C@H]6c6ncccc6C)OC5)c34)c(Cl)c2)cc1 [Compound I-58],1 to 100 nM
14,Cc1cccc(Oc2ccc(C(=O)c3c[nH]c4ncnc(N[C@@H]5CC[C@@H](C(=O)NCCCCN6[C@@H](c7ncccc7C)CCC[C@H]6c6ncccc6C)OC5)c34)c(Cl)c2)c1 [Compound I-59],1 to 100 nM
15,Cc1ccccc1Oc1ccc(C(=O)c2c[nH]c3ncnc(N[C@@H]4CC[C@@H](C(=O)NCCCCN5[C@@H](c6ncccc6C)CCC[C@H]5c5ncccc5C)OC4)c23)c(Cl)c1 [Compound I-60],1 to 100 nM
16,Cc1cccnc1[C@H]1CCC[C@@H](c2ncccc2C)N1CCN1CCN(C(=O)c2ccc(-c3cc4c(-c5cccc(NC(=O)c6ccc(F)cc6)c5C)ncnc4[nH]3)cc2)CC1 [Compound I-67],1 to 100 nM
17,Cc1cccnc1[C@H]1CCC[C@@H](c2ncccc2C)N1CCN1CCN(C(=O)c2ccc(-c3cc4c(-c5cccc(NC(=O)c6ccccc6F)c5C)ncnc4[nH]3)cc2)CC1 [Compound I-68],1 to 100 nM
18,CC(=O)Nc1cccc(-c2ncnc3[nH]c(-c4ccc(C(=O)N5CCN(CCN6[C@@H](c7ncccc7C)CCC[C@H]6c6ncccc6C)CC5)cc4)cc23)c1C [Compound I-69],1 to 100 nM
19,Cc1cccnc1[C@H]1CCC[C@@H](c2ncccc2C)N1CCN1CCN(C(=O)c2ccc(-c3cc4c(-c5cccc(NC(=O)C(C)(C)C)c5C)ncnc4[nH]3)cc2)CC1 [Compound I-70],100 to 1000 nM
20,Cc1cccnc1[C@H]1CCC[C@@H](c2ncccc2C)N1CCN1CCN(C(=O)[C@]23C[C@](c4cc5c(-c6cccc(NC(=O)c7ccccc7)c6C)ncnc5[nH]4)(C2)C3)CC1 [Compound I-71],1000 to 2500 nM
21,Cc1cccnc1C1CCCCN1CCN1CCN(C(=O)c2ccc(-c3cc4c(-c5cccc(NC(=O)c6ccccc6)c5C)ncnc4[nH]3)cc2)CC1 (centres unmarked) [Compound I-73],100 to 1000 nM

# Continued, values first:
row,IC50,SMILES
1,> 2500 nM,Cc1cccnc1[C@H]1CCC[C@@H](c2ncccc2C)N1CCCNC(=O)c1cc2c(-c3cccc(NC(=O)c4ccccc4)c3C)ncnc2[nH]1 [Compound I-75]
2,> 2500 nM,Cc1cccnc1[C@H]1CCC[C@@H](c2ncccc2C)N1CCCCNC(=O)c1cc2c(-c3cccc(NC(=O)c4ccccc4)c3C)ncnc2[nH]1 [Compound I-76]
3,> 2500 nM,Cc1cccnc1[C@H]1CCC[C@@H](c2ncccc2C)N1CCNC1CN(C(=O)c2cc3c(-c4cccc(NC(=O)c5ccccc5)c4C)ncnc3[nH]2)C1 [Compound I-77]
4,> 2500 nM,Cc1cccnc1[C@H]1CCC[C@@H](c2ncccc2C)N1CCCNC1CN(C(=O)c2cc3c(-c4cccc(NC(=O)c5ccccc5)c4C)ncnc3[nH]2)C1 [Compound I-78]
5,> 2500 nM,Cc1cccnc1[C@H]1CCC[C@@H](c2ncccc2C)N1CCCCNC1CN(C(=O)c2cc3c(-c4cccc(NC(=O)c5ccccc5)c4C)ncnc3[nH]2)C1 [Compound I-79]
6,100 to 1000 nM,Cc1cc(-c2ncnc3[nH]c(C(=O)NCCN4[C@@H](c5ncccc5C)CCC[C@H]4c4ncccc4C)cc23)ccc1CNC(=O)c1ccc(F)cc1 [Compound I-80]
7,100 to 1000 nM,Cc1cc(-c2ncnc3[nH]c(C(=O)NCCN4[C@@H](c5ncccc5C)CCC[C@H]4c4ncccc4C)cc23)ccc1CNC(=O)c1cccc(F)c1 [Compound I-81]
8,100 to 1000 nM,Cc1cc(-c2ncnc3[nH]c(C(=O)NCCCN4[C@@H](c5ncccc5C)CCC[C@H]4c4ncccc4C)cc23)ccc1CNC(=O)c1cccc(F)c1 [Compound I-82]
9,100 to 1000 nM,Cc1cc(-c2ncnc3[nH]c(C(=O)NCCCCN4[C@@H](c5ncccc5C)CCC[C@H]4c4ncccc4C)cc23)ccc1CNC(=O)c1cccc(F)c1 [Compound I-83]
10,100 to 1000 nM,Cc1cc(-c2ncnc3[nH]c(C(=O)NCCN4[C@@H](c5ncccc5C)CCC[C@H]4c4ncccc4C)cc23)ccc1CNC(=O)c1cc(F)cc(F)c1 [Compound I-84]
11,100 to 1000 nM,Cc1cc(-c2ncnc3[nH]c(C(=O)NCCCN4[C@@H](c5ncccc5C)CCC[C@H]4c4ncccc4C)cc23)ccc1CNC(=O)c1cc(F)cc(F)c1 [Compound I-85]
12,100 to 1000 nM,Cc1cc(-c2ncnc3[nH]c(C(=O)NCCCCN4[C@@H](c5ncccc5C)CCC[C@H]4c4ncccc4C)cc23)ccc1CNC(=O)c1cc(F)cc(F)c1 [Compound I-86]
13,> 2500 nM,Cc1cccnc1[C@H]1CCC[C@@H](c2ncccc2C)N1CCNC(=O)c1cc2c(-c3cccc(NC(=O)c4ccc(F)cc4)c3C)ncnc2[nH]1 [Compound I-87]
14,> 2500 nM,Cc1cccnc1[C@H]1CCC[C@@H](c2ncccc2C)N1CCCNC(=O)c1cc2c(-c3cccc(NC(=O)c4ccc(F)cc4)c3C)ncnc2[nH]1 [Compound I-88]
15,> 2500 nM,Cc1cccnc1[C@H]1CCC[C@@H](c2ncccc2C)N1CCCCNC(=O)c1cc2c(-c3cccc(NC(=O)c4ccc(F)cc4)c3C)ncnc2[nH]1 [Compound I-89]
16,> 2500 nM,Cc1cccnc1[C@H]1CCC[C@@H](c2ncccc2C)N1CCNC1CN(C(=O)c2cc3c(-c4cccc(NC(=O)c5ccc(F)cc5)c4C)ncnc3[nH]2)C1 [Compound I-90]
17,> 2500 nM,Cc1cccnc1[C@H]1CCC[C@@H](c2ncccc2C)N1CCCNC1CN(C(=O)c2cc3c(-c4cccc(NC(=O)c5ccc(F)cc5)c4C)ncnc3[nH]2)C1 [Compound I-91]
18,1000 to 2500 nM,Cc1cccnc1[C@H]1CCC[C@@H](c2ncccc2C)N1CCCCNC1CN(C(=O)c2cc3c(-c4cccc(NC(=O)c5ccc(F)cc5)c4C)ncnc3[nH]2)C1 [Compound I-92]

# Target: CXCR4 (Homo sapiens, UniProt P61073)
# Test: Intracellular CXCL-12-induced calcium mobilization assay (FLIPR), U87.CXCR4 cells
# Assay type: cell-based
# Design: expressed in transfected cells; host or cells: U87 (U87.CXCR4)
# Settings: CXCL-12 25-50 ng/ml, read-out: IC50 CXCL-12 Ca2+ flux U87.CXCR4+
# Description: Intracellular calcium mobilization induced by chemokines or chemokine-derived peptides were evaluated using a calcium responsive fluorescent probe and a FLIPR system. The CXCR-4 transfected U87 cell line (U87.CXCR4) cells were seeded in gelatine-coated black-wall 96-well plates at 20,000 cells per well and incubated for 12 hours. Cells were then loaded with the fluorescent calcium probe Fluo-2 acetoxymethyl at 4 μM final concentration in assay buffer (Hanks' balanced salt solution with 20 mM HEPES buffer and 0.2% bovine serum albumin, pH 7.4) for 45 min at 37° C. The intracellular calcium mobilization induced by the CXCL-12 (25-50 ng/ml) was then measured at 37° C. by monitoring the fluorescence as a function of time in all the wells simultaneously using a fluorometric imaging plate reader (FLIPR Tetra, Molecular Devices).
# CXCR4, sequence (P61073 whole entry): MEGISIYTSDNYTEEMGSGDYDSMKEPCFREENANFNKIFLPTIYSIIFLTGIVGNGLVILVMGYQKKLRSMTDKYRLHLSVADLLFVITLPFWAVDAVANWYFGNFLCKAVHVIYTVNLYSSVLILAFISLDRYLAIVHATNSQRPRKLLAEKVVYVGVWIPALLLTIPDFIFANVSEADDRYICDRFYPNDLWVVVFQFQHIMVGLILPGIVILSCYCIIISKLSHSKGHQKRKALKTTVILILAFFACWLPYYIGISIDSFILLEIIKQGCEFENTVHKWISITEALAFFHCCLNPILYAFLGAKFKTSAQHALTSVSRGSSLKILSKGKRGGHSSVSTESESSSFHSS
row,IC50,SMILES
1,> 2500 nM,Cc1cc(-c2ccnc(Nc3cnn(CCCCN4[C@@H](c5ncccc5C)CCC[C@H]4c4ncccc4C)c3)n2)ccc1CNC(=O)N1CC(OC(C)C)C1 [Compound I-29]
